# Literature values, collected in patent publication US6043217A, “Amide derivative of amythiamicin” (Zaidan Hojin Biseibutsu Kagaku Kenyu Kai, priority 1996, dated 2000).
# Settings: background statement on known amythiamicins; cited from earlier work
row,Structure (SMILES),solubility in water
1,CNC(=O)CC1NC(=O)c2csc(n2)-c2ccc(-c3nc(C4=NC(C(=O)N5CCCC5C(N)=O)CO4)cs3)nc2-c2csc(n2)-c2csc(n2)C(C(C)C)NC(=O)CNC(=O)c2csc(n2)C(C(C)C)NC(=O)c2nc1sc2C (centres unmarked) [Amythiamicin A],hardly soluble in water
2,"CNC(=O)CC1NC(=O)c2csc(n2)-c2ccc(-c3nc(C(=O)OCC4NC(=O)C5CCCN5C4=O)cs3)nc2-c2csc(n2)-c2csc(n2)C(C(C)C)NC(=O)CNC(=O)c2csc(n2)C(C(C)C)NC(=O)c2nc1sc2C (centres unmarked) [Amythiamicin C, amythiamicin C]",hardly soluble in water
